In US20240334934A1, “FUNGICIDE MIXTURE” (priority 2021, published 2024):

Legend:
[1] = test system: Rhynchosporium secalis K5917; assay: Efficacy of purified CtmC alone in-vitro, 96 well plate, OD 620 nm; type: cell-based; conditions: CtmC 10 ppm
Description: (§1) CtmC was dissolved in DMSO (Dimethylsulfoxid) to a final concentration of 1000 ppm to create a stock solution. A second dilutions of 1:10 was made in water+0.025% Tween 20. From this second dilution 10 μl are dispensed into a 96 well plate. To each well, 90 μl of medium (PDB—potato dextrose broth, plus 0.3% agar) with fungal spores are added and mixed, resulting in final CtmC concentrations of 10 ppm. All wells containing CtmC also contain DMSO (1%) and Tween 20 (0.0025%). In the following table 4 some of the species were tested using several distinct isolates (internal strain number indicated) to understand variability among different isolates of the same species sampled in different locations, producing different mycotoxins (genus Fusarium), or expressing various tolerances to fungicides of the SDHI (Succinate Dehydrogenase Inhibitor), SBI (Sterol Biosynthesis Inhibitors) and/or QoI (quinone outside inhibitors) classes (example: Zymoseptoria tritici). Different isolates had variable inoculum density and number of biological repicas, as indicated.

Septoria glycines K5204 = assay: as above; type: cell-based; conditions: CtmC 10 ppm
Description: as §1

Microdochium majus K7482 = assay: as above; type: cell-based; conditions: CtmC 10 ppm
Description: as §1

[2] = test system: Colletotrichum orbiculare K5770; assay: as above; type: cell-based; conditions: CtmC 10 ppm
Description: as §1

[3] = test system: Zymoseptoria tritici K6420; assay: as above; type: cell-based; conditions: CtmC 10 ppm
Description: as §1

[4] = test system: Zymoseptoria tritici K7953; assay: as above; type: cell-based; conditions: CtmC 10 ppm
Description: as §1

[5] = test system: Ramularia collo-cygni K6218; assay: as above; type: cell-based; conditions: CtmC 10 ppm
Description: as §1

Fusarium poae K8039 = assay: as above; type: cell-based; conditions: CtmC 10 ppm
Description: as §1

[6] = test system: Venturia inaequalis K6222; assay: as above; type: cell-based; conditions: CtmC 10 ppm
Description: as §1

[7] = test system: Corynespora cassiicola K5577; assay: as above; type: cell-based; conditions: CtmC 10 ppm
Description: as §1

[8] = test system: Zymoseptoria tritici K6318; assay: as above; type: cell-based; conditions: CtmC 10 ppm
Description: as §1

Fusarium culmorum K6937 = assay: as above; type: cell-based; conditions: CtmC 10 ppm
Description: as §1

[9] = test system: Zymoseptoria tritici K6105; assay: as above; type: cell-based; conditions: CtmC 10 ppm
Description: as §1

Cercospora sojina K5703 = assay: as above; type: cell-based; conditions: CtmC 10 ppm
Description: as §1

[10] = test system: Cercospora kikuchii K6080; assay: as above; type: cell-based; conditions: CtmC 10 ppm
Description: as §1

Fusarium culmorum K5488 = assay: as above; type: cell-based; conditions: CtmC 10 ppm
Description: as §1

[11] = test system: Ustilago segetum var. tritici K5349; assay: as above; type: cell-based; conditions: CtmC 10 ppm
Description: as §1

Fusarium culmorum K8196 = assay: as above; type: cell-based; conditions: CtmC 10 ppm
Description: as §1

Phakopsora pachyrhizi = assay: Leaf disc assay, soybean leaf disks, preventive; type: in vivo; conditions: rate 20 ppm, approx. 12 dpi
Description: A CtmC stock was generated at 1000 ppm in DMSO, then Diluted 1:50 in water+Tween 20 at 0.025% resulting in a 20 ppm solution.
Phakopsora pachyrhizi (Asian Soybean rust): Soybean leaf disks are placed on agar in multiwell plates (24-well format) and sprayed with test solutions. After drying, the leaf disks are inoculated with a spore suspension of the fungus. After appropriate incubation the activity of a compound is assessed approx. 12 dpi (days after inoculation) as preventive fungicidal activity

Tilletia tritici K5212 = assay: Efficacy of purified CtmC alone in-vitro, 96 well plate, OD 620 nm; type: cell-based; conditions: CtmC 10 ppm
[12] = test system: Pyrenophora tritici-repentis K6186; assay: as above; type: cell-based; conditions: CtmC 10 ppm, mycelium inoculum
Description: as §1, with “To each well, 90 μl of medium (PDB—potato dextrose broth, plus 0.3% agar) with fungal spores are added and mixed, resulting in final CtmC concentrations of 10 ppm.” left out

## C=C1NC(=O)CNC(=O)[C@H](CCCCN)NC(=O)[C@@]2(C)NC(=O)/C(=C/C)NC(=O)[C@H]3CSC(=N3)[C@@H](CC(N)=O)CC(=O)c3ccc(nc3[C@@H](C)NC(=O)[C@@H]3CCCN3C1=O)-c1nc(cs1)C1=N[C@H](CS1)C(=O)NC(=C)c1nc(cs1)-c1nc(cs1)C1=N[C@@H](CS1)C(=O)N[C@@H](C(=O)O)CS2 [CtmC, cyclothiazomycin C]
[1]
  efficacy (%): 95%
[1]; blank 0.046, untreated 0.378
  optical density at 620 nm: 0.062
Septoria glycines K5204
  efficacy (%): 81%
Septoria glycines K5204; blank 0.044, untreated 0.414
  optical density at 620 nm: 0.115
Microdochium majus K7482
  efficacy (%): 96%
Microdochium majus K7482; blank 0.050, untreated 0.228
  optical density at 620 nm: 0.057
[2]
  efficacy (%): 56%
[2]; blank 0.035, untreated 0.449
  optical density at 620 nm: 0.218
[3]
  efficacy (%): 93%
[3]; blank 0.048, untreated 0.257
  optical density at 620 nm: 0.064
[4]
  efficacy (%): 77%
[4]; blank 0.055, untreated 0.235
  optical density at 620 nm: 0.096
[5]
  efficacy (%): 60%
[5]; blank 0.043, untreated 0.231
  optical density at 620 nm: 0.119
Fusarium poae K8039
  efficacy (%): 62%
Fusarium poae K8039; blank 0.050, untreated 0.619
  optical density at 620 nm: 0.267
[6]
  efficacy (%): 86%
[6]; blank 0.044, untreated 0.320
  optical density at 620 nm: 0.082
[7]
  efficacy (%): 86%
[7]; blank 0.047, untreated 0.427
  optical density at 620 nm: 0.100
[8]
  efficacy (%): 98%
[8]; blank 0.054, untreated 0.253
  optical density at 620 nm: 0.059
Fusarium culmorum K6937
  efficacy (%): 44%
Fusarium culmorum K6937; blank 0.052, untreated 0.528
  optical density at 620 nm: 0.319
[9]
  efficacy (%): 99%
[9]; blank 0.044, untreated 0.354
  optical density at 620 nm: 0.046
Cercospora sojina K5703
  efficacy (%): 54%
Cercospora sojina K5703; blank 0.047, untreated 0.357
  optical density at 620 nm: 0.188
[10]
  efficacy (%): 100%
[10]; blank 0.044, untreated 0.215
  optical density at 620 nm: 0.043
Fusarium culmorum K5488
  efficacy (%): 52%
Fusarium culmorum K5488; blank 0.046, untreated 0.374
  optical density at 620 nm: 0.203
[11]
  efficacy (%): 97%
[11]; blank 0.044, untreated 0.304
  optical density at 620 nm: 0.051
Fusarium culmorum K8196
  efficacy (%): 48%
Fusarium culmorum K8196; blank 0.055, untreated 0.701
  optical density at 620 nm: 0.388
Phakopsora pachyrhizi
  control of fungal growth (%): 50%
Tilletia tritici K5212
  efficacy (%): 96%
Tilletia tritici K5212; blank 0.046, untreated 0.451
  optical density at 620 nm: 0.062
[12]
  efficacy (%): 90%
[12]; blank 0.046, untreated 0.508
  optical density at 620 nm: 0.094
